What was measured:
E. coli IH3080 (K1:O18) = assay: Well diffusion growth inhibition on LB agar plates (direct antibacterial activity); assay type: cell-based, Escherichia coli
Experimental: Peptides synthesized in Example 1, all carrying at least two (2) but not more than three (3) positive charges, were studied for their ability to inhibit the growth of E. coli. This was tested employing LB agar (LB Agar Lennox, Difco, BD, Sparks, Md., U.S.A) plates. The indicator organism E. coli IH3080 (K1:O18) was an encapsulated strain originally isolated from a neonate suffering from meningitis (Vaara et al. 1984) and obtained from National Public Health Institute, Helsinki, Finland.
(§1) From an overnight-grown culture of IH3080 on LB agar, a suspension of approx. 10^8 cells/ml was prepared in 0.9% NaCl. Aliquots of this suspension were then pipetted on the agar plates and the plates were gently shaken to spread the suspension evenly on the entire surface of the plate. Thereafter, the unabsorbed part of the suspension was removed by using a Pasteur pipette. After the surface had dried, small wells (diameter, 2 mm) were drilled on the plates (five wells per plate) by using a sterile sharp-edged narrow metal tube, single-use pipette tip, and vacuum suction. […] Controls included 0.9% NaCl solution without the compound to be tested. The plates were then incubated for 18 h at 37° C. whereafter the diameters of growth inhibition zones around each well were measured; the diameter of the well itself was not reduced. Finally, the diameters were converted to surface areas of growth inhibition (in square mm).

A. baumannii ATCC 19606 = assay: Sensitization to rifampin: well diffusion growth inhibition on LB plates containing rifampin; assay type: cell-based, Acinetobacter baumannii; details: 4 μg of compound
[1] = test system: Pseudomonas aeruginosa ATCC 27853; assay: Well diffusion growth inhibition on LB agar plates (direct antibacterial activity); assay type: cell-based; details: Ps. aeruginosa ATCC 27853
Experimental: (§2) From an overnight-grown culture of IH3080 on LB agar, a suspension of approx. 10^8 cells/ml was prepared in 0.9% NaCl. Aliquots of this suspension were then pipetted on the agar plates and the plates were gently shaken to spread the suspension evenly on the entire surface of the plate. Thereafter, the unabsorbed part of the suspension was removed by using a Pasteur pipette. After the surface had dried, small wells (diameter, 2 mm) were drilled on the plates (five wells per plate) by using a sterile sharp-edged narrow metal tube, single-use pipette tip, and vacuum suction. Samples (4 μl and 10 μl) of the peptide solution in 0.9% NaCl (at concentrations of 1 μg/ml and 0.1 μg/ml) were then pipetted to the wells and the sample fluids were allowed to absorb. Controls included 0.9% NaCl solution without the compound to be tested. The plates were then incubated for 18 h at 37° C. whereafter the diameters of growth inhibition zones around each well were measured; the diameter of the well itself was not reduced. Finally, the diameters were converted to surface areas of growth inhibition (in square mm).
(§3) Direct antibacterial activity of twelve NAB compounds against Acinetobacter baumannii ATCC 19606 and Pseudomonas aeruginosa ATCC 27853 was tested by using the susceptibility determination method described in Example 2. Five compounds (NAB7062, NAB734, NAB737, NAB739, and NAB740) had notable activity against A. baumannii. […] The antibacterial activity of NAB739 and NAB740 were as strong as or even stronger than that of polymyxin B.

[2] = test system: Acinetobacter baumannii ATCC 19606; assay: as above; assay type: cell-based; details: A. baumannii ATCC 19606
Experimental: as §2, §3

[3] = test system: Ps. aeruginosa ATCC 27853; assay: Sensitization to rifampin: well diffusion growth inhibition on LB plates containing rifampin; assay type: cell-based, Pseudomonas aeruginosa; details: 4 μg of compound
E. coli IH3080 = assay: as above; assay type: cell-based, Escherichia coli; details: 4 μg of compound
Experimental: as §1

Row | Substance | Antibacterial activity (growth inhibition area around a well) (E. coli IH3080 (K1:O18); 4 μg of compound per well) | Antibacterial activity (growth inhibition area around a well) (E. coli IH3080 (K1:O18); 10 μg of compound per well) | Antibacterial activity in the presence of rifampin (growth inhibition area around a well) (A. baumannii ATCC 19606; rifampin 0 μg/ml) | Antibacterial activity in the presence of rifampin (growth inhibition area around a well) (A. baumannii ATCC 19606; rifampin 0.1 μg/ml) | Antibacterial activity in the presence of rifampin (growth inhibition area around a well) (A. baumannii ATCC 19606; rifampin 0.3 μg/ml) | Antibacterial activity (growth inhibition area around a well) ([1]; 4 μg per well) | Antibacterial activity (growth inhibition area around a well) ([1]; 10 μg per well) | Antibacterial activity (growth inhibition area around a well) ([2]; 4 μg per well) | Antibacterial activity (growth inhibition area around a well) ([2]; 10 μg per well) | Antibacterial activity in the presence of rifampin (growth inhibition area around a well) ([3]; rifampin 0 μg/ml) | Antibacterial activity in the presence of rifampin (growth inhibition area around a well) ([3]; rifampin 0.1 μg/ml) | Antibacterial activity in the presence of rifampin (growth inhibition area around a well) ([3]; rifampin 0.3 μg/ml) | Antibacterial activity in the presence of rifampin (growth inhibition area around a well) (E. coli IH3080; rifampin 0 μg/ml) | Antibacterial activity in the presence of rifampin (growth inhibition area around a well) (E. coli IH3080; rifampin 0.1 μg/ml) | Antibacterial activity in the presence of rifampin (growth inhibition area around a well) (E. coli IH3080; rifampin 1.0 μg/ml)
1 | OA-Thr-DSer-cy[Dab-Dab-DPhe-Leu-Dab-Dab-Thr-] [NAB 739] | 133 square millimeters | 177 square millimeters | 113 square millimeters | 177 square millimeters | 314 square millimeters | 38 square millimeters | 79 square millimeters | 113 square millimeters | 177 square millimeters | 38 square millimeters | 64 square millimeters | 64 square millimeters | 133 square millimeters | 177 square millimeters | 201 square millimeters
2 | OA-Thr-DThr-cy[Dab-Dab-DPhe-Thr-Dab-Dab-Thr-] [NAB 737] | 133 square millimeters | 201 square millimeters | 38 square millimeters | 201 square millimeters | 283 square millimeters | 0 square millimeters | 28 square millimeters | 38 square millimeters | 79 square millimeters | 0 square millimeters | 20 square millimeters | 20 square millimeters | 133 square millimeters | 177 square millimeters | 201 square millimeters
3 | OA-Thr-Dab-cy[Dab-Dab-DPhe-Leu-Abu-Dab-Thr-] [NAB 716] | 13 square millimeters | 64 square millimeters | 0 square millimeters | 0 square millimeters | 64 square millimeters | 0 square millimeters | 0 square millimeters | 0 square millimeters | 0 square millimeters | 0 square millimeters | 0 square millimeters | 0 square millimeters | 13 square millimeters | 133 square millimeters | 165 square millimeters
4 | OA-Thr-Dab-cy[Dab-Dab-DPhe-Leu-Dab-Abu-Thr-] [NAB 717] | 0 square millimeters | 0 square millimeters | 0 square millimeters | 0 square millimeters | 50 square millimeters | 0 square millimeters | 0 square millimeters | 0 square millimeters | 0 square millimeters | 0 square millimeters | 0 square millimeters | 0 square millimeters | 0 square millimeters | 71 square millimeters | 95 square millimeters
5 | Polymyxin B nonapeptide [reference compound] | 0 square millimeters | 0 square millimeters | 0 square millimeters | 133 square millimeters | 154 square millimeters | 113 square millimeters | 177 square millimeters | 0 square millimeters | 0 square millimeters | 113 square millimeters | 113 square millimeters | 154 square millimeters | 0 square millimeters | 20 square millimeters | 113 square millimeters

From patent US9067974B2, “Polymyxin derivatives and uses thereof” (priority 2006, dated 2015)
